Measured values published in the NIST ThermoML archive (doi:10.1021/je060271a).

Details: 343.14 K, Liquid, Vibrating tube method

CCCCCCC(=O)OCC(COC(=O)CCCCCC)(COC(=O)CCCCCC)COC(=O)CCCCCC [pentaerythritol tetraheptanoate]
Details | mass density [kg/m3]
18157 kPa | 953.7
18178 kPa | 953.7
18297 kPa | 953.7
18319 kPa | 953.8
18346 kPa | 953.8
18368 kPa | 953.7
18394 kPa | 953.9
18417 kPa | 953.8
18440 kPa | 953.8
18467 kPa | 954
18490 kPa | 953.8
18513 kPa | 953.9
18736 kPa | 954
18759 kPa | 954.1
18788 kPa | 954.2
18811 kPa | 954.1
18834 kPa | 954.2
18863 kPa | 954.2
18886 kPa | 954.2
18911 kPa | 954.2
18939 kPa | 954.2
18963 kPa | 954.3
18988 kPa | 954.2
19016 kPa | 954.2
19305 kPa | 954.6
19330 kPa | 954.5
19356 kPa | 954.5
19386 kPa | 954.6
19411 kPa | 954.6
19743 kPa | 954.6
19769 kPa | 954.7
19796 kPa | 954.8
19828 kPa | 954.7
19854 kPa | 954.8
19881 kPa | 954.8
19913 kPa | 954.8
19941 kPa | 954.8
19968 kPa | 954.8
19994 kPa | 954.9
20028 kPa | 954.9
20054 kPa | 955
20087 kPa | 954.9
20115 kPa | 955
20142 kPa | 955
20169 kPa | 955.2
20203 kPa | 955.1
20230 kPa | 955.1
20258 kPa | 955.1
20441 kPa | 955.3
20475 kPa | 955.2
20533 kPa | 955.4
20567 kPa | 955.3
20596 kPa | 955.3
20625 kPa | 955.3
20660 kPa | 955.3
20722 kPa | 955.3
20752 kPa | 955.5
20817 kPa | 955.5
20847 kPa | 955.4
20877 kPa | 955.4
20907 kPa | 955.5
20942 kPa | 955.6
20972 kPa | 955.5
21003 kPa | 955.6
21039 kPa | 955.6
21133 kPa | 955.6
21170 kPa | 955.7
21200 kPa | 955.8
21230 kPa | 955.8
21267 kPa | 955.7
21298 kPa | 955.9
21330 kPa | 955.8
21368 kPa | 955.8
21399 kPa | 955.8
21431 kPa | 955.9
21462 kPa | 955.8
21500 kPa | 956
21533 kPa | 955.8
21565 kPa | 956
21597 kPa | 956
21636 kPa | 955.9
21669 kPa | 956
21702 kPa | 956
21740 kPa | 956
21773 kPa | 956
21806 kPa | 956.1
21839 kPa | 956.1
21878 kPa | 956.2
21912 kPa | 956.2
21946 kPa | 956.2
21986 kPa | 956.1
22020 kPa | 956.3
22053 kPa | 956.2
22086 kPa | 956.1
22236 kPa | 956.4
22270 kPa | 956.5
22311 kPa | 956.5
22345 kPa | 956.4
22380 kPa | 956.5
22421 kPa | 956.5
22456 kPa | 956.5
22491 kPa | 956.6
22526 kPa | 956.5
22569 kPa | 956.6
22604 kPa | 956.6
22640 kPa | 956.7
22675 kPa | 956.7
22776 kPa | 956.7
22834 kPa | 956.7
22870 kPa | 956.8
22914 kPa | 956.8
22950 kPa | 956.8
